This is an account of results in US9550768B2, “Kinase modulation and indications therefor” (PLEXXIKON INC., priority 2011, dated 2017).

Some results are limits rather than exact numbers.

The subject of one test is leukemia cell that express either wild type FLT3 or FLT3-ITD mutations.
Assay: not given
The settings on record: cited from earlier work.
Regarding `C=CCNC1=C2C[C@@H](C)C[C@H](OC)[C@H](O)[C@@H](C)/C=C(\C)[C@H](OC(N)=O)[C@@H](OC)/C=C\C=C(/C)C(=O)NC(=CC1=O)C2=O` [Compound 17AAG], the “growth of leukemia cells” value is reported as “inhibited”.

In another test the target is T1, FLT3 (Homo sapiens, UniProt P36888).
T1 construct: purchased Invitrogen PV3182
T1 sequence (P36888 564-993 limits assumed): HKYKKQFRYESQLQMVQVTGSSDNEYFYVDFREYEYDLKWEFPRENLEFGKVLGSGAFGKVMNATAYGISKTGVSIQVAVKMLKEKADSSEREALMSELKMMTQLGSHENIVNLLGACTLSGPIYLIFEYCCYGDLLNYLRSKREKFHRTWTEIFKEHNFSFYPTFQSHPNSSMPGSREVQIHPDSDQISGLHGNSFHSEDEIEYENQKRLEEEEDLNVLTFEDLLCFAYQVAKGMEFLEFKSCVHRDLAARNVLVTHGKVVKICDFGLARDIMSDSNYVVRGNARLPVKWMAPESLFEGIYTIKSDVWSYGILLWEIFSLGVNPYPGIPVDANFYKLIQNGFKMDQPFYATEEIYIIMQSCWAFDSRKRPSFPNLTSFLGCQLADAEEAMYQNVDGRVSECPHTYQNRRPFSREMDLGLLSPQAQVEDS
The experiment in a line: Flt3 biochemical assay (AlphaScreen, recombinant enzyme). As to conditions: recombinant FLT3, ATP 100 μM, room temperature, 60 minutes. (Bead proximity is the source of the signal in Alpha formats.)
From the text: Using AlphaScreen™ technology, the ability of the compounds to affect the catalytic activity of the kinases can be measured quantitatively. The peptide substrate is immobilized by the AlphaScreen™ Streptavidin Donor beads and, upon phosphorylation by a tyrosine kinase, can bind to AlphaScreen™ Anti-Phosphotyrosine (PY20) Acceptor beads. Upon excitation of these beads with laser light at 680 nm, singlet oxygen is produced. This singlet oxygen is rapidly quenched, unless the AlphaScreen™ Anti-Phosphotyrosine (PY20) Acceptor beads are in close proximity, in which case a proximity signal can be measured at 580 nm. In the presence of catalytic activity, there is a very strong proximity signal.
Centrifuge 1 minute, shake to mix, and incubate as follows:
• Mix Streptavidin Donor beads at 6× final concentration in Stop/Detection buffer. • Add 5 μL Streptavidin Donor beads to the reaction plate.
One may read the IC50 as the concentration at which inhibition is half-maximal. For `COc1cnc2[nH]cc(Cc3ccc(NCc4ccc(C(F)(F)F)nc4)nc3F)c2c1` [Compound P-0187, [6-Fluoro-5-(5-methoxy-1H-pyrrolo[2,3-b]pyridin-3-ylmethyl)-pyridin-2-yl]-(6-trifluoromethyl-pyridin-3-ylmethyl)-amine], the IC50 is below 0.01 µM.
On the same count and under the same terms, the same measure for `Fc1ccc(CNc2nc(Cl)c(Cc3c[nH]c4ncc(Cl)cc34)s2)cc1` [Compound P-0195, [4-Chloro-5-(5-chloro-1H-pyrrolo[2,3-b]pyridin-3-ylmethyl)-thiazol-2-yl]-(4-fluoro-benzyl)-amine]: below 0.1 µM; for `N#Cc1cnc2[nH]cc(Cc3ccc(NCc4ccc(C(F)(F)F)nc4)nc3Cl)c2c1` [Compound P-0232, 3-{2-Chloro-6-[(6-trifluoromethyl-pyridin-3-ylmethyl)-amino]-pyridin-3-ylmethyl}-1H-pyrrolo[2,3-b]pyridine-5-carbonitrile]: below 0.1 µM; for `COc1ccc(CNc2ccc(Cc3c[nH]c4ncc(C)cc34)cn2)cn1` [Compound P-0282, (6-Methoxy-pyridin-3-ylmethyl)-[5-(5-methyl-1H-pyrrolo[2,3-b]pyridin-3-ylmethyl)-pyridin-2-yl]-amine]: below 0.1 µM.
The same measure, in the same setting: in the case of `COc1ccc(CNc2ccc(Cc3c[nH]c4ncc(Cl)cc34)cn2)cn1` [Compound P-0283, [5-(5-Chloro-1H-pyrrolo[2,3-b]pyridin-3-ylmethyl)-pyridin-2-yl]-(6-methoxy-pyridin-3-ylmethyl)-amine] it was below 0.1 µM; in that of `COc1ccc(CNc2ccc(Cc3c[nH]c4ncc(C#N)cc34)cn2)cn1` [Compound P-0284, 3-{6-[(6-Methoxy-pyridin-3-ylmethyl)-amino]-pyridin-3-ylmethyl}-1H-pyrrolo[2,3-b]pyridine-5-carbonitrile], below 1 µM.
For `Fc1cncc(CNc2ccc(Cc3c[nH]c4ncc(Cl)cc34)cn2)c1` [Compound P-0324, [5-(5-Chloro-1H-pyrrolo[2,3-b]pyridin-3-ylmethyl)-pyridin-2-yl]-(5-fluoro-pyridin-3-ylmethyl)-amine], the IC50 was below 1 µM.
The same measure, in the same setting: the same measure for `COc1cnc2[nH]cc(Cc3ccc(NCc4ccccc4C(F)(F)F)nc3)c2c1` [Compound P-0326, [5-(5-Methoxy-1H-pyrrolo[2,3-b]pyridin-3-ylmethyl)-pyridin-2-yl]-(2-trifluoromethyl-benzyl)-amine]: below 0.1 µM; for `COc1cnc2[nH]cc(Cc3ccc(NCc4cc(F)ccc4F)nc3)c2c1` [Compound P-0330, (2,5-Difluoro-benzyl)-[5-(5-methoxy-1H-pyrrolo[2,3-b]pyridin-3-ylmethyl)-pyridin-2-yl]-amine]: below 1 µM.
Still for that read-out and setting: in the case of `COc1cnc2[nH]cc(Cc3ccc(NCc4ccc(OC)nc4)nc3)c2c1` [Compound P-0332, (6-Methoxy-pyridin-3-ylmethyl)-[5-(5-methoxy-1H-pyrrolo[2,3-b]pyridin-3-ylmethyl)-pyridin-2-yl]-amine] it was below 0.1 µM.
On the same count and under the same terms, the same measure for `Fc1cnc2[nH]cc(Cc3ccc(NCc4c(F)cccc4F)nc3)c2c1` [Compound P-0333, (2,6-Difluoro-benzyl)-[5-(5-fluoro-1H-pyrrolo[2,3-b]pyridin-3-ylmethyl)-pyridin-2-yl]-amine]: below 10 µM; for `COc1ccc(CNc2ccc(Cc3c[nH]c4ncccc34)cn2)c(OC)n1` [Compound P-0370, (2,6-Dimethoxy-pyridin-3-ylmethyl)-[5-(1H-pyrrolo[2,3-b]pyridin-3-ylmethyl)-pyridin-2-yl]-amine]: below 0.1 µM.
Consider `Cc1cc(F)ccc1CNc1ccc(Cc2c[nH]c3ncccc23)cn1` [Compound P-0372, (4-Fluoro-2-methyl-benzyl)-[5-(1H-pyrrolo[2,3-b]pyridin-3-ylmethyl)-pyridin-2-yl]-amine], for which the IC50 is below 0.1 µM.
Turning to `Clc1ccc(Cl)c(CNc2ccc(Cc3c[nH]c4ncccc34)cn2)c1` [Compound P-0380, (2,5-Dichloro-benzyl)-[5-(1H-pyrrolo[2,3-b]pyridin-3-ylmethyl)-pyridin-2-yl]-amine], the half-maximal inhibitory concentration (IC50) is below 1 µM.
The same measure, in the same setting: the same measure for `CCc1ccccc1CNc1ccc(Cc2c[nH]c3ncccc23)cn1` [Compound P-0383, (2-Ethyl-benzyl)-[5-(1H-pyrrolo[2,3-b]pyridin-3-ylmethyl)-pyridin-2-yl]-amine]: below 1 µM; for `CNc1ncccc1CNc1ccc(Cc2c[nH]c3ncccc23)cn1` [Compound P-0385, Methyl-(3-{[5-(1H-pyrrolo[2,3-b]pyridin-3-ylmethyl)-pyridin-2-ylamino]-methyl}-pyridin-2-yl)-amine]: below 1 µM; for `Fc1ccc(C(F)(F)F)c(CNc2ncc(Cc3c[nH]c4ncc(Cl)cc34)cn2)c1` [Compound P-0391, [5-(5-Chloro-1H-pyrrolo[2,3-b]pyridin-3-ylmethyl)-pyrimidin-2-yl]-(5-fluoro-2-trifluoromethyl-benzyl)-amine]: below 10 µM.
With `CN(C)c1ncccc1CNc1ccc(Cc2c[nH]c3ncccc23)cn1` [Compound P-0399, Dimethyl-(3-{[5-(1H-pyrrolo[2,3-b]pyridin-3-ylmethyl)-pyridin-2-ylamino]-methyl}-pyridin-2-yl)-amine], the IC50 was below 0.1 µM.
`Fc1ccc(Cl)c(CNc2ncc(Cc3c[nH]c4ncc(Cl)cc34)cn2)c1` [Compound P-0408, (2-Chloro-5-fluoro-benzyl)-[5-(5-chloro-1H-pyrrolo[2,3-b]pyridin-3-ylmethyl)-pyrimidin-2-yl]-amine]: the IC50 was below 1 µM.
The same measure, in the same setting: the same measure for `N#Cc1cnc2[nH]cc(Cc3ccc(NCc4cncc(F)c4)nc3F)c2c1` [Compound P-0415, 3-{2-Fluoro-6-[(5-fluoro-pyridin-3-ylmethyl)-amino]-pyridin-3-ylmethyl}-1H-pyrrolo[2,3-b]pyridine-5-carbonitrile]: below 1 µM; for `CC(Nc1ncc(Cc2c[nH]c3ncc(Cl)cc23)cn1)c1ccc(Cl)cc1` (stereo not shown) [Compound P-0427, [1-(4-Chloro-phenyl)-ethyl]-[5-(5-chloro-1H-pyrrolo[2,3-b]pyridin-3-ylmethyl)-pyrimidin-2-yl]-amine]: below 1 µM; for `C[C@H](Nc1ncc(Cc2c[nH]c3ncc(Cl)cc23)cn1)c1ccc(F)cc1` [Compound P-0428, [5-(5-Chloro-1H-pyrrolo[2,3-b]pyridin-3-ylmethyl)-pyrimidin-2-yl]-[(S)-1-(4-fluoro-phenyl)-ethyl]-amine]: below 1 µM.
Still for that read-out and setting: the same measure for `FC(F)(F)c1ccc(CNc2ncc(Cc3c[nH]c4ncc(Cl)cc34)cn2)cn1` [Compound P-0429, [5-(5-Chloro-1H-pyrrolo[2,3-b]pyridin-3-ylmethyl)-pyrimidin-2-yl]-(6-trifluoromethyl-pyridin-3-ylmethyl)-amine]: below 0.1 µM; for `N#Cc1cnc2[nH]cc(Cc3ccc(NCc4ccc(Cl)cc4)nc3F)c2c1` [Compound P-0432, 3-[6-(4-Chloro-benzylamino)-2-fluoro-pyridin-3-ylmethyl]-1H-pyrrolo[2,3-b]pyridine-5-carbonitrile]: below 0.1 µM.
For the compound `COc1ccccc1CNc1ncc(Cc2c[nH]c3ncc(Cl)cc23)cn1` [Compound P-0433, [5-(5-Chloro-1H-pyrrolo[2,3-b]pyridin-3-ylmethyl)-pyrimidin-2-yl]-(2-methoxy-benzyl)-amine], the concentration for half-maximal inhibition (IC50) is below 1 µM.
On the same count and under the same terms, in the case of `Fc1cccc(CNc2ncc(Cc3c[nH]c4ncc(Cl)cc34)cn2)c1` [Compound P-0442, [5-(5-Chloro-1H-pyrrolo[2,3-b]pyridin-3-ylmethyl)-pyrimidin-2-yl]-(3-fluoro-benzyl)-amine] it was below 0.1 µM.
With `CN(C)c1ccccc1CNc1ncc(Cc2c[nH]c3ncc(Cl)cc23)cn1` [Compound P-0449, [5-(5-Chloro-1H-pyrrolo[2,3-b]pyridin-3-ylmethyl)-pyrimidin-2-yl]-(2-dimethylamino-benzyl)-amine], the half-inhibitory concentration (IC50) is below 0.01 µM.
